Measured values: US6638531B1, “Antimicrobial peptides” (priority 1998, dated 2003)
Like-named read-outs stand apart in the source and are kept apart here. Marks after values point to notes of the source that are not given here. Where no end group is shown, it is not given here.

Experiments:
Type in all cases: cell-based
[1] = test system: artificial oral biofilm of seven oral aerobic and anaerobic types of bacteria; test: Antibacterial activity in an artificial oral biofilm; conditions: for inhibition at 35 ppm / inhibition at 200 ppm: po; for % reduction in viability counts, total Gram-negative average (s.d.) / % reduction in viability counts, total aerobic average / % reduction in viability counts, total anaerobic average: 0.5 h, pH 7
Protocol: An artificial oral biofilm was made by placing hydroxyapatite discs for five days in a continuous culture system of seven oral aerobic and anaerobic types of bacteria (Streptococcus mutans, Streptococcus sanpuis, Streptococcus salivarius, Actinomyces naeslundii, Veillonella parvula, Prevotella intermedia and Fusobacterium nucleatum) The discs with the biofilm formed thereon were subsequently incubated for half an hour with different concentrations of peptide in 10 mM potassium phosphate buffer, pH 7.0. The biofilm was then sonicated from the discs, diluted in PBS and plated out on semi-selective agar plates. The total […] were counted (Streptococci+Actinomyces) on aerobic incubated blood agar plates, the total Gram-negative counts (Veilonella, Fusobacterium and Prevotella) on vancomycin-containing plates and the total counts on the anaerobic incubated blood agar.

[2] = test system: bacteria collected from plaque; test: Antimicrobial activity on oral bacteria; conditions: po
Text: (§1) In order to determine whether the peptides according to the invention are also active against bacteria such as are encountered in the mouth, bacteria were collected from saliva and plaque. Saliva was shaken on a vortex mixer and centrifuged.

[3] = test system: bacteria collected from saliva; test: Antimicrobial activity on oral bacteria; conditions: po
Text: as §1

[4] = test system: bacteria from cultured plaque; test: Antimicrobial activity on oral bacteria; conditions: po
Text: as §1

[5] = test system: bacteria from disrupted plaque; test: Antimicrobial activity on oral bacteria; conditions: po
Text: as §1

Candida albicans = test: Growth inhibition on agar with spotted peptide; design: key: “+” designates full growth inhibition; “+/−” designates partial inhibition; “−” signifies no inhibition; conditions: C. albicans on agar, 10 μg peptide spotted
Protocol: (§2) The growth of the yeast Candida albicans, Torulopsis glabrata and meticillin-resistant Staphylococcus aureus (MRSA) was tested by growing them on agar on which 10 μg of each of the peptides according to the invention was spotted. […] “+” designates full growth inhibition, “+/−” designates partial inhibition and “−” signifies no inhibition.

Torulopsis glabrata = test: Growth inhibition on agar with spotted peptide; design: key: “+” designates full growth inhibition; “+/−” designates partial inhibition; “−” signifies no inhibition; conditions: T. glabrata on agar, 10 μg peptide spotted
Protocol: as §2

[6] = test system: meticillin-resistant Staphylococcus aureus (MRSA); test: Growth inhibition on agar with spotted peptide; design: key: “+” designates full growth inhibition; “+/−” designates partial inhibition; “−” signifies no inhibition; conditions: 10 μg peptide spotted
Protocol: as §2

Lactobacillus rhamnosus = test: Inhibition of lactic acid production; conditions: L. rhamnosus; 1 hour in 10 mM PPB with glucose
Protocol: (§3) All peptides according to the invention were tested for their capacity to inhibit the lactic acid production of the bacteria Streptococcus sanguis, Streptococcus mutans, Streptococcus salivarius and Lactobacillus rhamnosus. The formation of lactic acid is a measure for the metabolic activity. For this purpose cultures of bacteria cells were incubated for 1 hour in 10 mM PPB with 0.5 glucose and different concentrations of the peptides. The formation of lactic acid was monitored by means of spectrophotometry.

Streptococcus mutans = test: Inhibition of lactic acid production; conditions: S. mutans; 1 hour in 10 mM PPB with glucose
Protocol: as §3

Streptococcus salivarius = test: Inhibition of lactic acid production; conditions: S. salivarius; 1 hour in 10 mM PPB with glucose
Protocol: as §3

Streptococcus sanguis = test: Inhibition of lactic acid production; conditions: S. sanguis; 1 hour in 10 mM PPB with glucose
Protocol: as §3

[7] = read-out: % reduction in viability counts, total Gram-negative average (s.d.)
[8] = read-out: % reduction in viability counts, total aerobic average
[9] = read-out: % reduction in viability counts, total anaerobic average
[10] = read-out: % reduction in viability counts, total Gram-negative average

Compound	growth inhibition (Candida albicans)	growth inhibition (Torulopsis glabrata)	growth inhibition [6]	inhibition of lactic acid production (Lactobacillus rhamnosus)	inhibition of lactic acid production (Streptococcus mutans)	inhibition of lactic acid production (Streptococcus salivarius)	inhibition of lactic acid production (Streptococcus sanguis)	further results
[H]/N=C(\N/C(=N/[H])NCCCCCCNC(=N)NC(=N)Nc1ccc(Cl)cc1)Nc1ccc(Cl)cc1 [Chlorhexidine]								inhibition at 35 ppm [1, 7]: 68.3%; inhibition at 200 ppm [1, 7]: 99.9%; inhibition at 35 ppm [1, 8]: 39%; inhibition at 200 ppm [1, 8]: 99.9%; inhibition at 35 ppm [1, 9]: 38.4%; inhibition at 200 ppm [1, 9]: 99.9%; inhibition at 50 ppm [2, 10]: 99.7%; inhibition at 50 ppm [2, 8]: 99.7%; inhibition at 50 ppm [2, 9]: 99.7%; inhibition at 50 ppm [3, 10]: > 99.9%; inhibition at 50 ppm [3, 8]: > 99.9%; inhibition at 50 ppm [3, 9]: > 99.9%; inhibition at 50 ppm [4, 10]: > 99.9%; inhibition at 50 ppm [4, 8]: > 99.9%; inhibition at 50 ppm [4, 9]: > 99.9%; inhibition at 50 ppm [5, 10]: > 99.9%; inhibition at 50 ppm [5, 8]: 99.7%; inhibition at 50 ppm [5, 9]: 99%
KRLFKKLKFSLRKY-OH [peptide 9, KRLFKKLKFSLRKY]	+	+	+	+ (“+” designates full inhibition at 4-20 μg/ml peptide)	+ (“+” designates full inhibition at 4-20 μg/ml peptide)	+ (“+” designates full inhibition at 4-20 μg/ml peptide)	+ (“+” designates full inhibition at 4-20 μg/ml peptide)	% reduction in viability counts, total Gram-negative average (s.d.) ([1]; 10 μg/ml): 51.0 (32.0)* %; % reduction in viability counts, total aerobic average ([1]; 10 μg/ml): −67.4%; % reduction in viability counts, total anaerobic average ([1]; 10 μg/ml): −66.2%; % reduction in viability counts, total Gram-negative average (s.d.) ([1]; 100 μg/ml): 30.6 (104.4)* %; % reduction in viability counts, total aerobic average ([1]; 100 μg/ml): 78.7%; % reduction in viability counts, total anaerobic average ([1]; 100 μg/ml): 51.2%; % reduction in viability counts, total Gram-negative average (s.d.) ([1]; 250 μg/ml): 53.3 (70.7) %; % reduction in viability counts, total aerobic average ([1]; 250 μg/ml): 64.8%; % reduction in viability counts, total anaerobic average ([1]; 250 μg/ml): 61.2%; % reduction in viability counts, total Gram-negative average (s.d.) ([1]; 500 μg/ml): 96.9 (0.85)* %; % reduction in viability counts, total aerobic average ([1]; 500 μg/ml): 96.6%; % reduction in viability counts, total anaerobic average ([1]; 500 μg/ml): 93.2%
OOLFOELOOSLOOY [peptide 7]	+	+		+ (“+” designates full inhibition at 4-20 μg/ml peptide)	+ (“+” designates full inhibition at 4-20 μg/ml peptide)	+ (“+” designates full inhibition at 4-20 μg/ml peptide)	+ (“+” designates full inhibition at 4-20 μg/ml peptide)	
KRLFKELLFSLRKY-amide (KRLFKELLFSLRKY-NH2) [peptide 13]	+	+		+ (“+” designates full inhibition at 4-20 μg/ml peptide)	+ (“+” designates full inhibition at 4-20 μg/ml peptide)	+ (“+” designates full inhibition at 4-20 μg/ml peptide)	+ (“+” designates full inhibition at 4-20 μg/ml peptide)	
LLLFLLKKRKKRKY [peptide 11]	+	+	+	+ (“+” designates full inhibition at 4-20 μg/ml peptide)	+ (“+” designates full inhibition at 4-20 μg/ml peptide)	+ (“+” designates full inhibition at 4-20 μg/ml peptide)	+ (“+” designates full inhibition at 4-20 μg/ml peptide)	
KRLFKELKKSLRKY [peptide 5]	+	+		+ (“+” designates full inhibition at 4-20 μg/ml peptide)	+ (“+” designates full inhibition at 4-20 μg/ml peptide)	+ (“+” designates full inhibition at 4-20 μg/ml peptide)	+ (“+” designates full inhibition at 4-20 μg/ml peptide)	
KRLFKELKFSLRKY-amide (KRLFKELKFSLRKY-NH2) [peptide 12]	+	+		+ (“+” designates full inhibition at 4-20 μg/ml peptide)	+ (“+” designates full inhibition at 4-20 μg/ml peptide)	+ (“+” designates full inhibition at 4-20 μg/ml peptide)	+ (“+” designates full inhibition at 4-20 μg/ml peptide)	
OOLFOELLOSLOOY [peptide 8]	+	+		+ (“+” designates full inhibition at 4-20 μg/ml peptide)	+ (“+” designates full inhibition at 4-20 μg/ml peptide)	+ (“+” designates full inhibition at 4-20 μg/ml peptide)	+ (“+” designates full inhibition at 4-20 μg/ml peptide)	
KRKFHEKHHSHRGY [dh-5, C-terminal part of histatin 5, reference compound]	−	−	−	− (“−” signifies no inhibition of lactic acid formation at >100 μg/ml peptide)	− (“−” signifies no inhibition of lactic acid formation at >100 μg/ml peptide)	− (“−” signifies no inhibition of lactic acid formation at >100 μg/ml peptide)	− (“−” signifies no inhibition of lactic acid formation at >100 μg/ml peptide)	
KRLFKELLKSLRKY [peptide 6]	+	+		+ (“+” designates full inhibition at 4-20 μg/ml peptide)	+ (“+” designates full inhibition at 4-20 μg/ml peptide)	+ (“+” designates full inhibition at 4-20 μg/ml peptide)	+ (“+” designates full inhibition at 4-20 μg/ml peptide)	
KRLFKELLFSLRKY [peptide 4]	+	+	+/−	+ (“+” designates full inhibition at 4-20 μg/ml peptide)	+ (“+” designates full inhibition at 4-20 μg/ml peptide)	+ (“+” designates full inhibition at 4-20 μg/ml peptide)	+ (“+” designates full inhibition at 4-20 μg/ml peptide)	
